According to patent US9120774B2 (University of Kansas, priority 2009, dated 2015):
Read-outs that look alike come from different tables or passages of the source. One block for each molecule: values may come before it.

How the values were obtained:
[1] = test system: Hsp90 client protein Her-2 in Skbr3 breast cancer cells; assay: Degradation of Her-2, Western blot in Skbr3 cells; assay type: cell-based; settings: Homo sapiens, SK-BR-3, read-out: IC50 (concentration producing 50% degradation of Her-2), 24 hours, normalized against actin
Protocol: After incubation, the cells were harvested, lysed, and equal amounts of the protein lysates loaded into SDS wells. After electrophoresis, the gel was probed with Her-2 and actin (control) antibodies.

[2] = test system: Hsp90-dependent client proteins ErbB2 (Her2) and p53 in SKBr3 breast cancer cells; settings: previous studies; cited from earlier work
[3] = test system: LNCaP (androgen sensitive prostate cancer cells); assay: Anti-proliferation activity against LNCaP cells; assay type: cell-based; settings: Homo sapiens, LNCaP; Table 5, heterocyclic analogues; n = 3; read-out: IC50 LNCaP
Summary of the method: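 Cells seeded at 2000/well in Advanced DMEM/F12 with 10% FBS and attached overnight, then given compound in 1% DMSO final for 72 h at 37 °C, 5% CO2. Viable cells by MTS/PMS read-out, normalised to 1% DMSO as 100% proliferation. IC50 from separate triplicate experiments.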

[4] = test system: SkBr3 (Her2 overexpressing breast cancer cells); assay: Anti-proliferation activity against SkBr3 cells (MTS/PMS); assay type: cell-based
Summary of the method: (§1)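 Cells seeded at 2000/well, attached overnight, then exposed to compound at varying concentrations (1% DMSO final) for 72 hours at 37° C. Viable cells read by MTS/PMS, normalised to 1% DMSO as 100% proliferation. IC50 from separate triplicate experiments.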

[5] = test system: PC-3 (androgen independent prostate cancer cells); assay: Anti-proliferation activity against PC-3 cells; assay type: cell-based; settings: Homo sapiens, PC-3; Table 5, heterocyclic analogues; n = 3; read-out: IC50 PC-3
Summary of the method: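 Antiproliferative activity was tested in PC-3 androgen-independent prostate cancer cells. Cells grown at 37° C. with 5% CO2 in Advanced DMEM/F12 (1:1) containing non-essential amino acids, 2 mM L-glutamine, streptomycin, penicillin and 10% FBS were plated at 2000/well in 96-well plates. Proliferation was normalized to 1% DMSO controls, and IC50 values from triplicate experiments were fitted in GraphPad Prism.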

[6] = test system: Hsp90 client proteins Her2, Raf and Akt in MCF-7 breast cancer cells; assay: Hsp90 client protein degradation, Western blot in MCF-7 cells; assay type: cell-based
Protocol: FIG. 17 is a western blot analysis of Hsp90 client protein degradation assays against MCF-7 breast cancer cells. The concentration of compound 46 (in μM) is denoted above each lane. Geldamycin and DMSO were used as positive and negative controls, respectively.
In order to provide additional evidence that the growth inhibitory activity manifested by the 2-indoleamide compound 46 resulted from Hsp90 inhibition, 46 was evaluated by its ability to induce degradation of Hsp90-dependent client proteins. […] Since non-Hsp90-dependent substrates such as actin remained unchanged, the inhibition of cell growth was directly correlated to the degradation of Hsp90-dependent client proteins.

[7] = test system: HCT-116 (colon cancer cells characterized by wild-type p53); assay: Anti-proliferation activity against HCT-116 cells; assay type: cell-based; settings: Homo sapiens, Table 5, heterocyclic analogues, n = 3
[8] = test system: MCF-7 (estrogen receptor positive breast cancer cells); assay: Anti-proliferation activity against MCF-7 cells (MTS/PMS); assay type: cell-based; settings: Homo sapiens, MCF7; Table 5, heterocyclic analogues; n = 3; read-out: IC50 MCF-7
Summary of the method: as §1

[9] = test system: PL45 (pancreatic cancer cells); assay: Anti-proliferation activity against PL45 cells; assay type: cell-based; settings: Table 5, heterocyclic analogues, n = 3
[10] = test system: MCF-7 (estrogen receptor positive breast cancer cells); settings: previously published values; cited from earlier work
cancer cell lines = assay: Anti-proliferative activity, statements covering several cancer cell lines; assay type: cell-based; settings: SkBr3 and MCF-7, 1 μM
Protocol: Upon completion of synthesis of library of compounds in Examples 23 and 24, the compounds were evaluated for anti-proliferative activity against SkBr3 (Her2 overexpressing breast cancer cells), MCF-7 (estrogen receptor positive breast cancer cells), HCT-116 (colon cancer cells characterized by wild-type p53), PL45 (pancreatic cancer cells), LNCaP (androgen sensitive prostate cancer cells) and PC-3 (androgen independent prostate cancer cells) cell lines. […] The monosubstituted benzamide variants improved activity.
(§2) Cells were maintained in a 1:1 mixture of Advanced DMEM/F12 (Gibco) supplemented with non-essential amino acids, L-glutamine (2 mM), streptomycin (500 ng/mL), penicillin (100 units/mL), and 10% FBS. Cells were grown to confluence in a humidified atmosphere (37° C., 5% CO2), seeded (2000/well, 100 μl) in 96-well plates, and allowed to attach overnight. Compound or GDA at varying concentrations in DMSO (1% DMSO final concentration) was added, and cells were returned to the incubator for 72 hours. At 72 hours, the number of viable cells was determined using an MTS/PMS cell proliferation kit (Promega) per the manufacturer's instructions. Cells incubated in 1% DMSO were used at 100% proliferation, and values were adjusted accordingly. IC50 values were calculated from separate experiments performed in triplicate using GraphPad Prism.
as §2, with “μg/mL),” for “ng/mL),”, “μL)” for “μl)”

[11] = test system: SkBr3 (Her2 overexpressing breast cancer cells); settings: previously published values; cited from earlier work
primary cortical neurons = assay: Toxicity of drug alone in neuronal cells (Live-Dead assay); assay type: cell-based
Description: More specifically, primary cortical neurons were recovered from embryonic day 18 rat brains as described previously (Michaelis et al., Immunological Localization And Kinetic Characterization Of A Na+/Ca2+Exchanger In Neuronal And Nonneuronal Cells, Brain Res. 661 104-116 (1994)). Briefly, about 10 to 16 brains were removed from fetuses delivered by cesarean section, and the cortices dissected out. The neurons were isolated and suspended in DMEM/F12 supplemented with 10% FBS and plated on sterile dishes or cover slips coated with 10 μg/ml poly-D-lysine and 5 μg/ml mouse laminin. After 24 hours, the serum-containing medium was removed, and neurons were maintained in Neurobasal medium (Gibco) with 2% B-27 supplements (Gibco). Cells were maintained in culture at 37° C. in 5% CO2 and 97% humidity for 7 to 8 eight days in vitro (DIV) before use. […] Stock solutions of Aβ were prepared in sterile water at a concentration of 1.3 mM and stored at −20° C. Aliquots of the stock solutions were diluted to 1 mM in sterile 50 mM Tris-HCl, pH 7.4, and incubated at 37° C. for 24 hours to promote oligomerization of the peptides prior to treatment of the neurons. The effects of KU-1/A4, GA, Aβ, or the indicated combinations on neuronal viability were determined by monitoring cell survival using the Live-Dead assay as previously described. […] Digital images from 6 fields per dish were captured, and the number of viable (green) and dead (red) cells counted. All experiments were conducted with duplicate dishes from at least two neuronal preparations for each treatment, with about 1,000 cells analyzed/treatment condition. The data are expressed as the fraction of viable cells calculated from the total number of neurons counted under each treatment condition. The significance of differences between cultures exposed to various treatment conditions was determined using Student's t-test.

SMILES: CO[C@@H]1[C@@H](OC(N)=O)[C@@H](O)[C@H](Oc2ccc3c(O)c(NC(=O)c4ccc(O)c(CC=C(C)C)c4)c(=O)oc3c2C)OC1(C)C [novobiocin, reference compound]
- IC50 [1]: 700 µM
- concentration inducing degradation of ErbB2 [2]: about 700 μM

- IC50 [3]: 12.2 µM
- IC50 ([4]; Homo sapiens, SK-BR-3, Table 5, heterocyclic analogues, n = 3, read-out: IC50 SkBr3): 0.37 ± 0.06 µM
- IC50 [5]: 22.3 ± 10.1 µM
- IC50 [7]: 0.17 ± 0.01 µM
- IC50 [8]: 0.57 ± 0.07 µM
- IC50 [9]: 0.47 ± 0.34 µM
SMILES: CO[C@@H]1[C@@H](O)[C@@H](O)[C@H](Oc2ccc3cc(NC(=O)c4cc5ccccc5[nH]4)c(=O)oc3c2C)OC1(C)C [compound 46, N-(7-((2R,3R,4S,5R)-3,4-Dihydroxy-5-methoxy-6,6-dimethyltetrahydro-2H-pyran-2-yloxy)-8-methyl-2-oxo-2H-chromen-3-yl)-1H-indole-2-carboxamide]
- fold increased activity compared to novobiocin ([4]; SkBr3 cells): greater than 500 fold
- Hsp90 client proteins Her2, Raf and Akt [6]: degraded in a concentration-dependent manner
- Hsp90 level [6]: induced

SMILES: COC1=C2C[C@@H](C)C[C@H](OC)[C@H](O)[C@@H](C)/C=C(\C)[C@H](OC(N)=O)[C@@H](OC)/C=C\C=C(/C)C(=O)NC(=CC1=O)C2=O [GA, reference compound]
- IC50 [10]: 0.133 µM
- cytotoxicity (cancer cell lines): almost complete cytotoxicity
- IC50 [11]: 0.018 µM
- cytotoxicity in neuronal cells (primary cortical neurons; 10 μM, 24 hours): significant cytotoxicity
- cytotoxicity in neuronal cells (primary cortical neurons; lower concentrations, 72 hours): substantial cytotoxicity
